Results on 10 molecules are retold here after BindingDB's records for doi:10.1016/S0960-894X(97)00125-X (1997).

Square brackets hold non-standard residues; d marks the D form. Peptide text beside a SMILES is read from it. * marks the point of attachment. Propionyl = CCC(=O)*; Mpa = O=C(O)CCS

What is called IC50 is the concentration that gives 50% inhibition.

The target in the first assay is Stromelysin-1 (MMP-3) (Rattus norvegicus) (UniProt P03957). As to the kind of experiment: Compound was tested for its inhibitory activity against Matrix metalloprotease-3 (MMP-3) in adjuvant arthritic rat model of rheumatoid arthritis.
Sequence of Stromelysin-1 (MMP-3) (Rattus norvegicus) (P03957 whole entry, looked up): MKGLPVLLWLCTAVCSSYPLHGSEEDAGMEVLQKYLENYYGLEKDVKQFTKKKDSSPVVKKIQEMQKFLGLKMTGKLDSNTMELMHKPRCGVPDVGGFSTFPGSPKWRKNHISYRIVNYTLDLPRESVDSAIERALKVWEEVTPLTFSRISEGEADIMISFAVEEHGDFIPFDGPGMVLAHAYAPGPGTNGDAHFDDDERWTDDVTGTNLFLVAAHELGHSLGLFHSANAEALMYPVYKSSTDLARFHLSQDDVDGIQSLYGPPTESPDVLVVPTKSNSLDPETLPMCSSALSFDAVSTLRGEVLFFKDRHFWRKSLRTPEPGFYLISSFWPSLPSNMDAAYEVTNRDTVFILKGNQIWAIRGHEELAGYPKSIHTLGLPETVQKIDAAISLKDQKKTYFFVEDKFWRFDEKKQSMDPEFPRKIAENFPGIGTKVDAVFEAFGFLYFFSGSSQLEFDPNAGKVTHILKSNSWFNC
Regarding `CNC(=O)[C@H](Cc1ccccc1)NC(=O)[C@H](C[S+](C)[O-])NC(=O)CS` (stereo partly drawn) [(R)-2-(2-Mercapto-acetylamino)-3-methanesulfinyl-N-((S)-1-methylcarbamoyl-2-phenyl-ethyl)-propionamide], the IC50 worked out at 8500 nM.

Take `CCC(=O)N[C@@H](CC(C)C)C(=O)N[C@@H](Cc1ccccc1)C(=O)NC` [(S)-4-Methyl-2-propionylamino-pentanoic acid ((S)-1-methylcarbamoyl-2-phenyl-ethyl)-amide] (Propionyl-Leu-Phe-NHMe): the IC50 is more than 100000 nM.

Take `CNC(=O)[C@H](Cc1ccccc1)NC(=O)[C@@H](NC(=O)CS)C(C)O` (stereo partly drawn) [(S)-3-Hydroxy-2-(2-mercapto-acetylamino)-N-((S)-1-methylcarbamoyl-2-phenyl-ethyl)-butyramide]: the IC50 is more than 100000 nM. On to `CNC(=O)[C@H](Cc1ccccc1)NC(=O)[C@H](CC(C)C)NC(=O)CCS` [(S)-2-(3-Mercapto-propionylamino)-4-methyl-pentanoic acid ((S)-1-methylcarbamoyl-2-phenyl-ethyl)-amide] ([Mpa]-Leu-Phe-NHMe), for which the IC50 is more than 100000 nM.

`CNC(=O)[C@H](Cc1ccccc1)NC(=O)[C@H](CC(C)C)NC(=O)CS` [(S)-2-(2-Mercapto-acetylamino)-4-methyl-pentanoic acid ((S)-1-methylcarbamoyl-2-phenyl-ethyl)-amide]: the IC50 came out at 2600 nM.

Consider `CNC(=O)[C@H](Cc1ccccc1)NC(=O)[C@H](CC(C)C)NC(=O)CSC` [(S)-4-Methyl-2-(2-methylsulfanyl-acetylamino)-pentanoic acid ((S)-1-methylcarbamoyl-2-phenyl-ethyl)-amide], for which the IC50 is more than 100000 nM. Still for that read-out and setting: the figure for `CNC(=O)[C@H](Cc1ccccc1)NC(=O)[C@H](CSC)NC(=O)CS` [(R)-2-(2-Mercapto-acetylamino)-N-((S)-1-methylcarbamoyl-2-phenyl-ethyl)-3-methylsulfanyl-propionamide] is 650 nM.

For a further assay the target is unchanged. The description is as above. This is another data set of the same source.
`CNC(=O)[C@H](Cc1c[nH]c2ccccc12)NC(=O)[C@H](CC(C)C)NC(=O)CS` [(S)-2-(2-Mercapto-acetylamino)-4-methyl-pentanoic acid [(S)-2-(1H-indol-3-yl)-1-methylcarbamoyl-ethyl]-amide]: the IC50 was found to be 430 nM. `CNC(=O)[C@H](Cc1c[nH]c2ccccc12)NC(=O)[C@H](CSC)NC(=O)CS` [(R)-N-[(S)-2-(1H-Indol-3-yl)-1-methylcarbamoyl-ethyl]-2-(2-mercapto-acetylamino)-3-methylsulfanyl-propionamide]: the IC50 was 810 nM. The same measure, in the same setting: the value for `CNC(=O)[C@H](Cc1cscn1)NC(=O)[C@H](CC(C)C)NC(=O)CS` [(S)-2-(2-Mercapto-acetylamino)-4-methyl-pentanoic acid ((S)-1-methylcarbamoyl-2-thiazol-4-yl-ethyl)-amide] was 430 nM.
